Assay results as given in patent US20050143392A1, “Chrysogenazine obtained from fungus Penicillium chrysogenum having antibacterial activity” (Council of Scientific & Industrial Research, priority 2003, published 2005).

Tested on: Vibrio cholerae MCM B-322
Test: Antibacterial activity, simple disc diffusion (agar diffusion) technique
Experimental: In addition, standard discs of penicillin (10 units/disc), amphicillin (10 mcg/disc) and streptomycin (10 mcg/disc) were used to compare the sensitivity.
Antibacterial activity was determined using a Gram negative bacterial strain, Vibrio cholerae, in a agar diffusion assay, essentially as described by Chabbert, (1963) and Rinehart et.al.,(1981). […] Following an appropriate incubation interval, microbial growth inhibition was visualized and quantified by measuring the clear zone around each disc (Plate 1.). Comparison of this was made with the standard antibiotics (penicillin, amphicillin, and streptomycin).

SMILES | zone of inhibition at 10 µg/disc (Vibrio cholerae, MCMB322) [mm] | antibacterial activity against human pathogen Vibrio cholerae (in words) (disc diffusion, 5-30 mcg/disc)
[H]/N=C(/N)N[C@H]1[C@H](O)[C@@H](O)[C@H](O[C@@H]2O[C@@H](C)[C@](O)(C=O)[C@H]2O[C@@H]2O[C@@H](CO)[C@H](O)[C@@H](O)[C@@H]2NC)[C@@H](N/C(N)=N\[H])[C@@H]1O [streptomycin] | 4 to 5 | –
CC(C)=CCc1[nH]c2ccccc2c1C=C1NC(=O)C(C)NC1=O (centres unmarked) [chrysogenazine, 3,1′-didehydro-3[2″(3′″,3′″-dimethyl-prop-2-enyl)-3″-indolylmethylene]-6-methylpiperazine-2,5-dione] | – | active
